Laboratory results as given in paper PMC5443610 (Journal of Medicinal Chemistry, 2017).
In brackets after ≈: the same amount, converted by molar mass. Blank lines part the entries; values can stand above or below the compound they belong to.

Key:
[1] = target: T1, BRPF2 BD/H4 (Homo sapiens, UniProt O95696); assay: NanoBRET cellular assay; assay type: cell-based; details: HCT116 cells
T1 sequence (O95696 560-666): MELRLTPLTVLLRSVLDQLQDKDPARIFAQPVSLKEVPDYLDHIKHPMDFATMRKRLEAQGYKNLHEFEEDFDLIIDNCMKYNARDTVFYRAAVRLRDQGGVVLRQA

[2] = target: T2, BRPF1 BD (Homo sapiens, UniProt P55201); assay: TR-FRET binding competition assay
T2 sequence (P55201 626-740): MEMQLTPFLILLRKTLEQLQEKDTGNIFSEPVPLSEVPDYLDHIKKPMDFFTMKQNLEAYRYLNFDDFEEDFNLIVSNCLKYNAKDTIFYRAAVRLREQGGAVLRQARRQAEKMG

[3] = High-throughput aqueous solubility from DMSO solution; assay type: physicochemical; details: pH 6.5 buffer
[4] = tested on: Caco2 cells; assay: Caco2 permeability assay; assay type: in vitro ADME
[5] = Reversed-phase HPLC lipophilicity; assay type: physicochemical; details: pH 7.5
[6] = target: T3, BRPF3 BD (Homo sapiens, UniProt Q9ULD4); assay: TR-FRET binding competition assay
T3 sequence (Q9ULD4 592-711): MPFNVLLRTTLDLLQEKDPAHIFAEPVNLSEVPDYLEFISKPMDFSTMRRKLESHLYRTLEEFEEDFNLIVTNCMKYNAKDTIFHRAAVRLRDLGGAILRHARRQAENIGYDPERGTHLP

[7] = tested on: panel of 22 kinases; assay: Panel of 22 kinases; assay type: biochemical; details: data not shown
[8] = target: T4, BRPF3 (Homo sapiens, UniProt Q9ULD4); assay: AlphaScreen; assay type: binding
T4 sequence (Q9ULD4 589-693 limits assumed): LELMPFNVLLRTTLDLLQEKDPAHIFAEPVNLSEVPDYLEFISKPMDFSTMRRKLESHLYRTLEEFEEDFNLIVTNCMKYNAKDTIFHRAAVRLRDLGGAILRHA

[9] = target: BRD4 BDs (Homo sapiens, UniProt O60885); assay: AlphaScreen; assay type: binding
[10] = Metabolic stability in hepatocytes; assay type: in vitro ADME; details: rat hepatocytes
[11] = target: T5, BRPF1 BD/H4 (Homo sapiens, UniProt P55201); assay: NanoBRET cellular assay; assay type: cell-based
T5 sequence (P55201 626-732): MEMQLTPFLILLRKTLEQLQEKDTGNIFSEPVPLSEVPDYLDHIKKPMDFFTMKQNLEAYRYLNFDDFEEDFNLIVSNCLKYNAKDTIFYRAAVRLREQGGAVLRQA

[12] = tested on: 68 potential targets; assay: LeadProfilingScreen; details: 10 μM compound
[13] = target: T6, TAF1L BD2 (Homo sapiens, UniProt Q8IZX4); assay: biochemical; assay type: binding
T6 sequence (Q8IZX4 1517-1649): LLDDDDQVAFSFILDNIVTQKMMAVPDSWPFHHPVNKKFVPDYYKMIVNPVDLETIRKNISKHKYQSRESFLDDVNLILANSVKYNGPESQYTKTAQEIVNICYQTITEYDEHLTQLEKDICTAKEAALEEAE

[14] = Metabolic stability in liver microsomes; assay type: in vitro ADME; details: mouse liver microsomes
[15] = target: CREBBP BD (Homo sapiens, UniProt Q92793); assay: Isothermal titration calorimetry; assay type: binding
Chain of CREBBP BD (Q92793 1081-1197): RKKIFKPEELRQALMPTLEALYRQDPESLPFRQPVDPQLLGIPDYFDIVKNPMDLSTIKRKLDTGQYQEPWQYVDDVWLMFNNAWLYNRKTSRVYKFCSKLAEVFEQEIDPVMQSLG

[16] = target: T7, BRPF1 (Homo sapiens, UniProt P55201); assay: AlphaScreen; assay type: binding
T7 sequence (P55201 628-732 limits assumed): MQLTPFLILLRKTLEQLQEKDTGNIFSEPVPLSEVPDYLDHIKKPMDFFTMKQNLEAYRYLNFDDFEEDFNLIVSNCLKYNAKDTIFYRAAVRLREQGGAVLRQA

[17] = tested on: panel containing over 300 kinases; assay: Kinase panel; assay type: biochemical; details: 10 μM, all cases
[18] = Caco2 permeability assay; assay type: in vitro ADME; details: human, Caco-2, pH 7.2, Caco2 Papp (B-A), 2 μM, 2 h
[19] = Metabolic stability in liver microsomes; assay type: in vitro ADME; details: dog liver microsomes
[20] = Metabolic stability in liver microsomes; assay type: in vitro ADME; details: rat liver microsomes
[21] = target: CREBBP (Homo sapiens, UniProt Q92793); assay: AlphaScreen; assay type: binding
Chain of CREBBP (Q92793 1081-1197): as the sequence (Q92793 1081-1197) above

[22] = In vivo rat pharmacokinetics; parameters: species or system Wistar rat
[23] = Metabolic stability in liver microsomes; assay type: in vitro ADME; details: human liver microsomes

IC50 [1]: 470 nM
Structure (SMILES): Cc1cc2c(cc1N1C(=O)c3cccc4cccc(c34)C1=O)n(C)c(=O)n2C [Compound 7, 2-(1,3,6-Trimethyl-2-oxo-2,3-dihydro-1H-benzimidazol-5-yl)-1H-benzo[de]isoquinoline-1,3(2H)-dione]

IC50 ([2]; BRPF1 IC50, TR-FRET): 5860 nM
Structure (SMILES): Cc1cc2c(cc1N1C(=O)c3cccc4c(CCCO)ccc(c34)C1=O)n(C)c(=O)n2C (single isomer, unassigned) [atropisomer 1, (−)-6-(3-Hydroxypropyl)-2-(1,3,6-trimethyl-2-oxo-2,3-dihydro-1H-benzimidazol-5-yl)-1H-benzo[de]isoquinoline-1,3(2H)-dione]

IC50 ([2]; BRPF1 IC50, TR-FRET): 5490 nM
Structure (SMILES): Cc1cc2c(cc1N1C(=O)c3cccc4c(CCCO)ccc(c34)C1=O)n(C)c(=O)n2C (single isomer, unassigned) [atropisomer 2, (+)-6-(3-Hydroxypropyl)-2-(1,3,6-trimethyl-2-oxo-2,3-dihydro-1H-benzimidazol-5-yl)-1H-benzo[de]isoquinoline-1,3(2H)-dione]

solubility at 24 h [3]: 3.7 µg/mL (≈ 10.4 µM) | permeability profile in Caco2 cells [4]: excellent permeability profile | chromatographic logD [5]: 2.1 | IC50 [6]: > 20000 nM | IC50 ([2]; BRPF1: inactive up to concentration, TR-FRET, HTS hit dose-response): > 20000 nM
Structure (SMILES): Cn1c(=O)n(C)c2cc(N3C(=O)c4cccc5cccc(c45)C3=O)ccc21 [Compound 6]

activity for BRPF3 ([8]; AlphaScreen): no activity | activity for BRD4 BDs [9]: no activity
Structure (SMILES): Cn1c(=O)[nH]c2cc(N3C(=O)c4cccc5c(CCCO)ccc(c45)C3=O)ccc21 [Compound 31, 6-(3-Hydroxypropyl)-2-(1-methyl-2-oxo-2,3-dihydro-1H-benzimidazol-5-yl)-1H-benzo[de]isoquinoline-1,3(2H)-dione]
no activity up to, panel of 22 kinases [7]: > 10 µM

CLblood [10]: 63.3 mL/min/kg | IC50 [11]: > 10000 nM | IC50 [13]: 106 nM | CLblood [14]: 3.17 mL/min/kg | Kd [15]: 1390 nM | IC50 [16]: 2280 nM | inhibition in kinase panel [17]: less than 50% | Papp B→A at 2 h, 2 μM [18]: 19.1 ×10⁻⁶ cm/s | CLblood [19]: < 0.017 mL/min/kg | Fmax [19]: 100% | CLblood [20]: 2.5 mL/min/kg | IC50 [21]: 1710 nM | IC50 [8]: 2450 nM | blood clearance as share of hepatic blood flow [22]: ca. 17% | CLblood ([22]; in vivo): 12.2 mL/min/kg | IC50 [6]: 5550 nM | CLblood [23]: < 0.017 mL/min/kg | Fmax [23]: 100% | IC50 ([2]; BRPF1 IC50, TR-FRET): 3150 nM
Structure (SMILES): Cc1cc2c(cc1N1C(=O)c3cccc4c(CCCO)ccc(c34)C1=O)n(C)c(=O)n2C (racemic) [Compound 5, 6-(3-Hydroxypropyl)-2-(1,3,6-trimethyl-2-oxo-2,3-dihydro-1H-benzimidazol-5-yl)-1H-benzo[de]isoquinoline-1,3(2H)-dione]
inhibition or stimulation in LeadProfilingScreen [12]: ≤ 25%

cellular activity for BRPF1 ([11]; NanoBRET): no activity
Structure (SMILES): Cc1cc2c(cc1N1C(=O)c3cccc4c(Cl)ccc(c34)C1=O)n(C)c(=O)n2C [Compound 13, 6-Chloro-2-(1,3,6-trimethyl-2-oxo-2,3-dihydro-1H-benzimidazol-5-yl)-1H-benzo[de]isoquinoline-1,3(2H)-dione]
